Assay results from patent US20100055183A1 (OsteoGeneX Inc., priority 2008, published 2010).

Legend:
[1] = test system: mouse; assay: Mouse bone formation assay, micro-CT after complete dosing schedule; assay type: in vivo; conditions: versus control solution
Description: (§1) Compounds useful in the methods of the present invention can be identified via a variety of methods known to one of skill in the art. Several exemplary methods for identifying such antagonists are described herein, including cell-based and in vitro techniques (Journal of Bone and Mineral Research 2006, 21(11), 1738-1749). A general method of identifying SOST antagonists involves evaluating the effects of antagonist candidates on bone formation under controlled conditions. Preferably bone formation is determined using micro-CT techniques on live animals. Preferred animals include rodents, more preferred are primates. Femur, tibia and vertebrae bones are particularly useful subjects for such study.
Briefly, the test animal is treated with a predetermined dose of a SOST antagonist candidate. […]
Once the dosing schedule has been completed, both test and control animals are examined to determine the quantity of bone formation present. […] Where necessary, levels of bone formation can be calculated by determining the volume of bone formation present in each animal. […]
For example, the mouse test animal is treated with a predetermined dose of a SOST antagonist candidate for a complete dosing schedule. […] Once the dosing schedule has been completed, both test and control animals are examined with sacrifice using micro-CT to determine the quantity of bone formation present.

[2] = test system: Wnt pathway; assay: Modulation of the Wnt pathway (FIGS. 1 and 2); conditions: doses of 2.5 ng (low), 60 ng (medium), 125 ng (high)
Description: as §1

[3] = test system: C57BL/6 mice; assay: Bone volume in treated mice by pQCT / micro-CT analysis; assay type: in vivo, mouse; conditions: four month old male C57BL/6 mice, 0.1 mg/kg, daily i.p. for 30 days
Method: Four month old male C57BL/6 mice were treated daily with saline vehicle or the sclerostin inhibitor of trimeprazine tartrate at 0.1 mg/kg (via i.p) for 30 days. […]

[4] = test system: C57BL/6 mice; assay: Serum osteocalcin bone formation marker, EIA Elisa, in treated mice; assay type: in vivo, mouse; conditions: four month old male C57BL/6 mice, 5 mg/kg, daily i.p. for 30 days
Description: […] Study endpoints included a biochemical marker of bone formation; osteocalcin, measured by EIA Elisa, and measurement of tibia trabecular bone volume by mico-CT analysis.

Row | Compound | bone growth (quantity of bone formation present) [1] | modulation of the Wnt pathway to promote bone growth [2] | increase in bone volume for the femur over baseline controls [3] | percent increase in serum osteocalcin bone formation marker over saline controls [4]
1 | CC(CN(C)C)CN1c2ccccc2Sc2ccccc21 (stereo not drawn) [trimeprazine] | promoting bone growth | modulating the Wnt pathway | – | –
2 | CCN(CC)C(C)CN1c2ccccc2Sc2ccccc21 (stereo not drawn) [ethopropazine] | promoting bone growth | modulating the Wnt pathway | – | –
3 | trimeprazine tartrate | – | – | about 8% | 46%
